In paper PMC2359919, “Molecular targeting of retinoic acid metabolism in neuroblastoma: the role of the CYP26 inhibitor R116010 in vitro and in vivo” (British Journal of Cancer, 2007):

Legend:
CRABP II = CRABP II mRNA expression in SH-SY5Y cells, real-time PCR; type: cell-based, human; conditions: ATRA 0.01 μM or 13cisRA 0.1 μM with R116010 1 μM vs retinoid alone, 24 h
Method: (§1) SH-SY5Y, SH-EP (N- and S-type cells respectively derived from the parental line SK-N-SH), LAN6, IMR-32, NGP and GIMEN neuroblastoma cell lines were cultured routinely in RPMI 1640 medium containing fetal calf serum (10%) and L-glutamine (2 mM). Cells were grown at 37°C in a humidified incubator containing 5% CO2.
(§2) 13-cis-Retinoic acid and ATRA were dissolved in DMSO and diluted in cell culture medium to obtain final concentrations of 0.1–10 μM. The final concentration of DMSO in all cases was <0.2%. All experiments were performed in dim light and tubes containing retinoids were wrapped in aluminium foil.
(§3) RNA was reverse-transcribed using Promega's Reverse Transcription System according to the manufacturer's instructions, using random hexamer primers. Real-time PCR was performed on 20 ng cDNA using TaqMan gene expression products for human CYP26A1, CYP26B1, CRABPII, RARβ and MYCN in combination with the TaqMan Universal PCR master mix (Applied Biosystems, Warrington, UK). […] As internal standard, β-actin was measured simultaneously using the endogenous control assay provided by Applied Biosystems. […] Standard curves were generated from serial dilutions of cDNA prepared from cells treated with ATRA (1 μM) and the data were analysed using the GeneAmp Sequence Detection System software. CYP26C1 expression was analysed as described previously ([Taimi et al, 2004]).

[1] = tested on: SH-SY5Y, NGP, SH-EP and GIMEN cells; design: method as in Armstrong et al, 2005b; conditions: SH-SY5Y neuroblastoma cells; ref Armstrong et al, 2005b; cited from earlier work
RARβ = RARβ mRNA expression in SH-SY5Y cells, real-time PCR; type: cell-based, human; conditions: ATRA 0.01 μM or 13cisRA 0.1 μM with R116010 1 μM vs retinoid alone, 24 h
Method: as §1, §2, §3

CYP26A1 = CYP26A1 mRNA expression in neuroblastoma cells, real-time PCR; type: cell-based, human; conditions: 0.1 μM retinoid, 24 h; panel of neuroblastoma cell lines; relative to SH-SY5Y cells treated with 0.01 μM ATRA
Method: as §1, §2
CYP26 short hairpin RNAs (shRNAs) were generated using the siSTRIKE U6 Hairpin Cloning System (Promega, Southampton, UK). The CYP26A1, B1 and Ctrl siRNA sequences were designed using Promega software. […]
as §3, with “primers.” for “primers. Real-time PCR was performed on 20 ng cDNA using TaqMan gene expression products for human CYP26A1, CYP26B1, CRABPII, RARβ and MYCN in combination with the TaqMan Universal PCR master mix (Applied Biosystems, Warrington, UK).”

neuroblastoma cell lines = tested on: neuroblastoma cell lines; design: method as in Villablanca et al, 1995; conditions: ref Villablanca et al, 1995; cited from earlier work
[2] = design: method as in Villablanca et al, 1995; conditions: high-dose pulse therapy after autologous bone marrow transplantation or non-myeloablative therapy; ref Villablanca et al, 1995; cited from earlier work

C[C@@H]([C@H](c1ccc(Nc2nc3ccccc3s2)cc1)n1ccnc1)N(C)C [R116010]
Effect on CRABP II expression, co-incubation with retinoid (CRABP II): significant increases
Inhibition of ATRA metabolism [1]: inhibits ATRA metabolism
Effect on RARβ expression, co-incubation with retinoid (RARβ): significant increases

CC1=C(/C=C/C(C)=C/C=C/C(C)=C/C(=O)O)C(C)(C)CCC1 [ATRA, all-trans-retinoic acid]
CYP26A1 induction (CYP26A1): induced to various extents in SH-SY5Y, LAN6 and NGP cells

CC1=C(/C=C/C(C)=C/C=C/C(C)=C\C(=O)O)C(C)(C)CCC1 [13cisRA, 13-cis-retinoic acid]
Concentration effective against neuroblastoma cell lines in vitro (neuroblastoma cell lines): 5 µM
Peak drug levels in patients [2]: > 5 µM
